Laboratory results as given in PubChem BioAssay AID1963860 (Molecular Pharmacology Branch, DTP, NCI, 2024).
Where “and” joins values, the source holds several entries; their conditions need not be identical. Equal entries are not always repeated.

Test system: CN0375-F725-PDC KRAS spheroid viability
Assay: Anticancer human tumor CN0375-F725-PDC patient-derived colon carcinoma cell line growth inhibition [KRAS2]
Details: spheroids with HUVEC and MSC; for viability, T/C: stronger effect = lower value
Procedure, shortened: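 KRAS-mutant tumor cells were grown as spheroids with HUVEC endothelial cells and human MSCs as stroma. Targeted agents were tested alone and with KRAS pathway inhibitors. Doses started at or near clinical Cmax, or 10 microM, descending half-log.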

[1] = curve of first compound, second compound 0.1 µM
[2] = curve of first compound, second compound 0.316 µM
[3] = curve of first compound, second compound 1 µM
[4] = curve of first compound, second compound 3.16 µM
[5] = curve of first compound, second compound 10 µM
[6] = second compound 0.1 µM, first compound 0.0316 µM
[7] = second compound 0.1 µM, first compound 0.1 µM
[8] = second compound 0.1 µM, first compound 0.316 µM
[9] = second compound 0.1 µM, first compound 1 µM
[10] = second compound 0.1 µM, first compound 3.16 µM
[11] = second compound 0.1 µM, first compound 10 µM
[12] = second compound 0.316 µM, first compound 0.0316 µM
[13] = second compound 0.316 µM, first compound 0.1 µM
[14] = second compound 0.316 µM, first compound 0.316 µM
[15] = second compound 0.316 µM, first compound 1 µM
[16] = second compound 0.316 µM, first compound 3.16 µM
[17] = second compound 0.316 µM, first compound 10 µM
[18] = second compound 1 µM, first compound 0.0316 µM
[19] = second compound 1 µM, first compound 0.1 µM
[20] = second compound 1 µM, first compound 0.316 µM
[21] = second compound 1 µM, first compound 1 µM
[22] = second compound 1 µM, first compound 3.16 µM
[23] = second compound 1 µM, first compound 10 µM
[24] = second compound 3.16 µM, first compound 0.0316 µM
[25] = second compound 3.16 µM, first compound 0.1 µM
[26] = second compound 3.16 µM, first compound 0.316 µM
[27] = second compound 3.16 µM, first compound 1 µM
[28] = second compound 3.16 µM, first compound 3.16 µM
[29] = second compound 3.16 µM, first compound 10 µM
[30] = second compound 10 µM, first compound 0.0316 µM
[31] = second compound 10 µM, first compound 0.1 µM
[32] = second compound 10 µM, first compound 0.316 µM
[33] = second compound 10 µM, first compound 1 µM
[34] = second compound 10 µM, first compound 3.16 µM
[35] = second compound 10 µM, first compound 10 µM
[36] = compound alone, run of 08/26/2021
[37] = compound alone, run of 09/02/2021
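Note: spheroids exposed to agents for 7 days.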

Structure (SMILES): Cn1nccc1Nc1nccc(-c2cc3c(s2)C(C)(C)N(CCN2CCOCC2)C3=O)n1 + CC1OCC2(CCN(c3cnc(Sc4ccnc(N)c4Cl)c(N)n3)CC2)C1N
- IC50 [1]: 2.33 µM
- IC50 [2]: 1.07 µM
- IC50 [3]: 0.661 µM
- IC50 [4]: 0.341 µM
- IC50 [5]: 0.209 µM
- viability, T/C [6]: 98.5%
- viability, T/C [7]: 83.1%
- viability, T/C [8]: 69.8%
- viability, T/C [9]: 58.7%
- viability, T/C [10]: 47.5%
- viability, T/C [11]: 36.7%
- viability, T/C [12]: 88.8%
- viability, T/C [13]: 78.1%
- viability, T/C [14]: 60.4%
- viability, T/C [15]: 51.8%
- viability, T/C [16]: 42.1%
- viability, T/C [17]: 36.3%
- viability, T/C [18]: 81.2%
- viability, T/C [19]: 81.9%
- viability, T/C [20]: 60.1%
- viability, T/C [21]: 45.3%
- viability, T/C [22]: 37.1%
- viability, T/C [23]: 35.9%
- viability, T/C [24]: 74.7%
- viability, T/C [25]: 65.5%
- viability, T/C [26]: 52.1%
- viability, T/C [27]: 36.4%
- viability, T/C [28]: 33.7%
- viability, T/C [29]: 31.5%
- viability, T/C [30]: 62.7%
- viability, T/C [31]: 63.3%
- viability, T/C [32]: 42.8%
- viability, T/C [33]: 31.9%
- viability, T/C [34]: 28.9%
- viability, T/C [35]: 28.3%

Structure (SMILES): COc1cc2nc(C)nc(NC(C)c3cc(N)cc(C(F)(F)F)c3)c2cc1OC1CCOC1 (stereo not drawn)
- viability, T/C (compound 0.1 µM): 96.2% [middle of 17 runs]
- viability, T/C (compound 0.316 µM): 92.3% [middle of 17 runs]
- viability, T/C (compound 1 µM): 90.5% [middle of 17 runs]
- viability, T/C (compound 3.16 µM): 83.4% [middle of 17 runs]
- IC50 [36]: 5.77 µM [middle of 4 runs]
- IC50 [37]: 5.43 µM [middle of 6 runs]

Structure (SMILES): CC(=O)OC12COC1CC(O)C1(C)C(=O)C(O)C3=C(C)C(OC(=O)C(O)C(NC(=O)OC(C)(C)C)c4ccccc4)CC(O)(C(OC(=O)c4ccccc4)C21)C3(C)C (stereo not drawn) + COc1cc2nc(C)nc(NC(C)c3cc(N)cc(C(F)(F)F)c3)c2cc1OC1CCOC1
- IC50 [1]: > 3.16 µM
- IC50 [2]: > 3.16 µM
- IC50 [3]: > 3.16 µM
- IC50 [4]: > 3.16 µM
- IC50 [5]: 1.08 µM
- viability, T/C (second compound 0.1 µM, first compound 0.01 µM): 99.6%
- viability, T/C [6]: 96.2%
- viability, T/C [7]: 87.8%
- viability, T/C [8]: 84.4%
- viability, T/C [9]: 80.5%
- viability, T/C [10]: 72.7%
- viability, T/C (second compound 0.316 µM, first compound 0.01 µM): 91%
- viability, T/C [12]: 91.8%
- viability, T/C [13]: 83.6%
- viability, T/C [14]: 80%
- viability, T/C [15]: 74.9%
- viability, T/C [16]: 69.5%
- viability, T/C (second compound 1 µM, first compound 0.01 µM): 89.8%
- viability, T/C [18]: 101%
- viability, T/C [19]: 87.8%
- viability, T/C [20]: 82.7%
- viability, T/C [21]: 80.4%
- viability, T/C [22]: 71.4%
- viability, T/C (second compound 3.16 µM, first compound 0.01 µM): 77.7%
- viability, T/C [24]: 70.6%
- viability, T/C [25]: 75.1%
- viability, T/C [26]: 63.4%
- viability, T/C [27]: 71.1%
- viability, T/C [28]: 63.6%
- viability, T/C (second compound 10 µM, first compound 0.01 µM): 68.3%
- viability, T/C [30]: 65.6%
- viability, T/C [31]: 64.6%
- viability, T/C [32]: 52.6%
- viability, T/C [33]: 54.9%
- viability, T/C [34]: 39.9%

Structure (SMILES): O=C(c1cc(Cc2n[nH]c(=O)c3ccccc23)ccc1F)N1CCN(C(=O)C2CC2)CC1 + C=CC(=O)N1CCN(c2nc(=O)n(-c3c(C)ccnc3C(C)C)c3nc(-c4c(O)cccc4F)c(F)cc23)C(C)C1
- IC50 [1]: > 10 µM
- IC50 [2]: > 10 µM
- IC50 [3]: > 10 µM
- IC50 [4]: > 10 µM
- IC50 [5]: > 10 µM
- viability, T/C [6]: 107%
- viability, T/C [7]: 107%
- viability, T/C [8]: 99.6%
- viability, T/C [9]: 100%
- viability, T/C [10]: 99.8%
- viability, T/C [11]: 93.9%
- viability, T/C [12]: 109%
- viability, T/C [13]: 102%
- viability, T/C [14]: 102%
- viability, T/C [15]: 103%
- viability, T/C [16]: 101%
- viability, T/C [17]: 92.3%
- viability, T/C [18]: 109%
- viability, T/C [19]: 113%
- viability, T/C [20]: 106%
- viability, T/C [21]: 99.2%
- viability, T/C [22]: 102%
- viability, T/C [23]: 91.1%
- viability, T/C [24]: 105%
- viability, T/C [25]: 111%
- viability, T/C [26]: 106%
- viability, T/C [27]: 99.7%
- viability, T/C [28]: 99.6%
- viability, T/C [29]: 97.2%
- viability, T/C [30]: 97.9%
- viability, T/C [31]: 100%
- viability, T/C [32]: 94.2%
- viability, T/C [33]: 94.5%
- viability, T/C [34]: 96.4%
- viability, T/C [35]: 85.2%

Structure (SMILES): O=C(c1cc(Cc2n[nH]c(=O)c3ccccc23)ccc1F)N1CCN(C(=O)C2CC2)CC1
- viability, T/C (compound 0.0316 µM): 107% [middle of 5 runs]
- viability, T/C (compound 0.1 µM): 106% [middle of 5 runs]
- viability, T/C (compound 0.316 µM): 102% [middle of 5 runs]
- viability, T/C (compound 1 µM): 107% [middle of 5 runs]
- viability, T/C (compound 3.16 µM): 105% [middle of 5 runs]
- viability, T/C (compound 10 µM): 96.7% [middle of 5 runs]
- IC50 (curve of compound): > 10 µM

Structure (SMILES): CC(C)NCC(C(=O)N1CCN(c2ncnc3c2C(C)CC3O)CC1)c1ccc(Cl)cc1 (stereo not drawn)
- viability, T/C (compound 0.0316 µM): 103% [middle of 5 runs]
- viability, T/C (compound 0.1 µM): 102% [middle of 5 runs]
- viability, T/C (compound 0.316 µM): 96.5% [middle of 5 runs]
- viability, T/C (compound 1 µM): 93.9% [middle of 5 runs]
- viability, T/C (compound 3.16 µM): 91.8% [middle of 5 runs]
- viability, T/C (compound 10 µM): 76.8% [middle of 5 runs]
- IC50 (curve of compound): > 10 µM

Structure (SMILES): CC1OCC2(CCN(c3cnc(Sc4ccnc(N)c4Cl)c(N)n3)CC2)C1N (stereo not drawn)
- viability, T/C (compound 0.0316 µM): 98.4% and 98.5% and 100%
- viability, T/C (compound 0.1 µM): 94.9% [middle of 19 runs]
- viability, T/C (compound 0.316 µM): 89.6% [middle of 19 runs]
- viability, T/C (compound 3.16 µM): 78.7% [middle of 20 runs]
- IC50 (compound alone, run of 08/19/2021): > 10 µM
- IC50 [36]: > 10 µM
- IC50 [37]: > 10 µM
- IC50 (curve of compound): > 10 µM

Structure (SMILES): CNCc1ccccc1-c1csc(C(C)Nc2nc(C)nc3cc(OC)c(OC)cc23)c1 (stereo not drawn)
- viability, T/C (compound 0.1 µM): 98.1% [middle of 17 runs]
- viability, T/C (compound 0.316 µM): 92.8% [middle of 17 runs]
- viability, T/C (compound 10 µM): 0.33% [middle of 15 runs]
- IC50 [36]: 988 nM [middle of 5 runs]
- IC50 [37]: 1.33 µM [middle of 6 runs]
